Results from patent publication US7410949B2, “Neuropeptide-2 receptor (Y-2R) agonists and uses thereof” (Hoffmann-La Roche Inc., priority 2005, dated 2008).
*1 amine or outer side, *2 acyl side, *3 side chain or, on linkers, in order; H or OH if unused. Where a SMILES comes first, the peptide text is derived from it. Bridges are numbered along the chain shown (N, C = ends). [ ]: non-standard residue; d: D form. X1 = O=C(COc1ccc2[nH]cc(CCN[*:1])c2c1)[*:2]; Nle = CCCC[C@H](N)C(=O)O

Columns and labels:
[1] = system: C57BL/6J male mice or DIO (diet-induced obese) male mice; assay: In Vivo Reduction of Food Intake Assay; parameters: species or system mouse
Experimental: In this Example, compounds of Examples 5, 44, 73 and 74 were administered to four sets of mice in four separate experiments to measure effect on food intake. C57BL/6J male mice or DIO (diet-induced obese) male mice were used in the experiments, with eight mice per experimental group. The mice were maintained on a regular light cycle (6 AM—ON; 6 PM—OFF). The mice were fasted for 24 hours prior to testing with ad lib access to water. During the test, mice were housed one per cage.
The compounds of Examples 5 and 44 were administered intraperitoneally; and the compounds of Examples 73 and 74 were administered subcutaneously. In each Figure, cumulative and time interval food consumptions were measured in individual mice. Mean food consumption and percent change from vehicle were calculated for each time interval. Data was analyzed by using two-tailed Student t-test.

hypothalamic slices = hypothalamic slices in vitro; cited from earlier work
Y1R = biological target: T1, Y1R (Homo sapiens, UniProt P25929); assay: FLIPR assay, Y1R; format: cell-based
T1 sequence (P25929 1-384): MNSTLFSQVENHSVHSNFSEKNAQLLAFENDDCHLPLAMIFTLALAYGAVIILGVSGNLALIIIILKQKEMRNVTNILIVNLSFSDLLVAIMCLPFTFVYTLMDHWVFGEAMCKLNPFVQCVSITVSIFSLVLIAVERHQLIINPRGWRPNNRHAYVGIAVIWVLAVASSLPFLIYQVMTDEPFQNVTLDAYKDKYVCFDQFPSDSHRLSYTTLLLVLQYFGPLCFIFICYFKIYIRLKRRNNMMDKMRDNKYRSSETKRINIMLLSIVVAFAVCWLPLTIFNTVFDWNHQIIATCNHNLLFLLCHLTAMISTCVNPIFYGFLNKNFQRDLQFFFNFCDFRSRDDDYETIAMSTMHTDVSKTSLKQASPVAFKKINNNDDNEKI
Experimental: (§1) Loading Buffer (Calcium-3 Assay Kit, Molecular Devices) was prepared by dissolving the contents of one vial (Express Kit) into 1000 ml Hank's Balanced Salt Solution containing 20 mM HEPES and 5 mM probenecid. Aliquots of 25 μL of diluted dye was dispensed into the cell plates and the plates are then incubated for 1 hour at 37° C.
(§2) During the incubation, test compounds were prepared at 3.5× the desired concentration in HBSS (20 mM HEPES)/0.05% BSA/1% DMSO and transferred to a 384 well plate for use on FLIPR.
(§3) After incubation, both the cell and compound plates were brought to the FLIPR and 20 μL of the diluted compounds were transferred to the cell plates by the FLIPR. During the assay, fluorescence readings were taken simultaneously from all 384 wells of the cell plate every 1.5 seconds. Five readings were taken to establish a stable baseline, and then 20 μL of sample was rapidly (30 μL/sec) and simultaneously added to each well of the cell plate. The fluorescence was continuously monitored before, during and after sample addition for a total elapsed time of 100 seconds. Responses (increase in peak fluorescence) in each well following addition was determined. The initial fluorescence reading from each well, prior to ligand stimulation, was used as a zero baseline value for the data from that well. The responses are expressed as % of maximal response of the positive control.

Y4R = Y4R (Homo sapiens, UniProt P50391); assay: FLIPR assay, Y4R; format: cell-based
Sequence of Y4R (P50391 whole entry): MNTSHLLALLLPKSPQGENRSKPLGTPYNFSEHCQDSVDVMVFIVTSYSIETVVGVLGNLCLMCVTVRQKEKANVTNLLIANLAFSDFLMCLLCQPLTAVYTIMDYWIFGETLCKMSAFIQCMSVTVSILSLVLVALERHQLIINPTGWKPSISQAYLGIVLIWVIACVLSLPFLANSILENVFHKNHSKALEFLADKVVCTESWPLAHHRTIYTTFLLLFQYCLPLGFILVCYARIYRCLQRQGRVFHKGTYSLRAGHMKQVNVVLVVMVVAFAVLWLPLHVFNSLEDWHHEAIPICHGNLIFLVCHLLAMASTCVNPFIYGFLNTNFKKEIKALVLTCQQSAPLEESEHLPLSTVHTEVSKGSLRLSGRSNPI
Experimental: as §1, §2, §3

[2] = administered subcutaneously, mice fasted 24 hours, 1, 2, 4, 6, 24 hours and longer intervals
[3] = administered intraperitoneally, mice fasted 24 hours, 1, 2, 4, 6 and 24 hours after dosing

Compound | reduction of food intake [1, 2] | reduction of food intake [1, 3] | further results
PEG (30,000)-Ile-Nle-Pqa-Arg-His-Tyr-Leu-Asn-Leu-Val-Thr-Arg-Gln-Arg-Tyr-NH2 [Example 74] | reduction of food intake was demonstrated |  | 
Ac-Ile-Nle-Pqa-Arg-His-Tyr-Leu-Asn-Leu-Val-Thr-Arg-Gln-Arg-Tyr-NH2 [Example 44] |  | reduction of food intake was demonstrated | 
H-Ile-Lys-Pqa-Arg-His-Tyr-Leu-Asn-Leu-Val-Thr-Arg-Gln-Arg-Tyr-NH2 [Example 5] |  | reduction of food intake was demonstrated | 
N=C(N)NCCC[C@H](NC(=O)CC1(CC(=O)N2CCN(C3c4ccccc4NC(=O)c4ccccc43)CC2)CCCC1)C(=O)NCCn1c(=O)n(-c2ccccc2)n(-c2ccccc2)c1=O (stereo partly shown) [BIIE0246] |  |  | NPY release (hypothalamic slices): increases NPY release
CCCC[C@H](NC(=O)[C@@H](NC(C)=O)[C@@H](C)CC)C(=O)NCCc1c[nH]c2ccc(OCC(=O)N[C@@H](CCCNC(=N)N)C(=O)N[C@@H](Cc3c[nH]cn3)C(=O)N[C@@H](Cc3ccc(O)cc3)C(=O)N[C@H]3CCCCNC(=O)C[C@@H](C(=O)N[C@@H](CCCNC(=N)N)C(=O)N[C@@H](CCC(N)=O)C(=O)N[C@@H](CCCNC(=N)N)C(=O)N[C@@H](Cc4ccc(O)cc4)C(N)=O)NC(=O)[C@H](C(C)C)NC(=O)[C@H](CC(C)C)NC(=O)[C@H](CC(N)=O)NC3=O)cc12 [Example 53] (Ac-I[Nle][X1]RHYKNLVDRQRY-NH2; lactam 7-11) |  |  | EC50 (Y1R): > 5 µM; EC50 (Y4R): > 5 µM
PEG (10,000)-Ile-Nle-Pqa-Arg-His-Tyr-Leu-Asn-Leu-Val-Thr-Arg-Gln-Arg-Tyr-NH2 [Example 73] | reduction of food intake was demonstrated |  | 
